In patent US20070253994A1, “Intraspinal Drug Delivery Methods and Devices To Alleviate Chronic Pelvic Pain” (Medtronic, Inc., priority 2006, published 2007):
“Also recorded” adds a separate entry of the source. Structures can show the parent of a compound that is named as a salt.

What was measured:
[1] = tested on: micturition reflex of female rats; test: micturition reflex (cystometrogram) of female rats in the interstitial cystitis (IC) model of visceral pain, acetic acid bladder infusion; format: in vivo, rat; conditions: for frequency of acetic-acid-induced contractions compared with rate during saline infusion, both doses: both doses of Table 1
[2] = tested on: patients with chronic nonbacterial prostatitis; conditions: typically orally administered; cited from earlier work
[3] = female rats, acetic acid infusion, intrathecal, doses of Table 1
[4] = urethane-anesthetized female rats, 0.5% acetic acid bladder infusion, intrathecal, two ascending doses (Table 1)

## CNCCCN1c2ccccc2CCc2ccccc21 [Desipramine, Desipramine HCl]
[1]; [3]
  amplitude of bladder contractions: Neither of these drugs suppressed the amplitude of bladder contractions
[1]; female rats, acetic acid infusion, intrathecal, higher dose of Table 1
  micturition reflex frequency at the higher dose: effective at reducing the reflex frequency
[1]; female rats, acetic acid infusion, intrathecal, lower dose of Table 1
  micturition reflex frequency at the lower dose: not at the lower dose
[1]; female rats, intrathecal, higher dose of Table 1
  frequency of acetic-acid-induced bladder contractions compared with frequency during saline infusion, higher dose: reduced the frequency of acetic-acid-induced bladder contractions to a level comparable to the normal frequency of contraction seen with saline infusion
[1]; [4]
  micturition reflex frequency: suppressed micturition reflex frequency in a dose-dependent fashion

## Clc1cccc(Cl)c1N=C1NCCN1 [Clonidine, Clonidine HCl]
[1]; [4]
  micturition reflex frequency: no measurable effect

## CCCCN1CCCCC1C(=O)Nc1c(C)cccc1C (stereo not drawn) [Bupivacaine, Bupivacaine HCl]
[1]; [3]
  amplitude of bladder contractions: no effect on the amplitude of contraction
[1]; female rats, intrathecal
  frequency of acetic-acid-induced contractions compared with rate during saline infusion, both doses: reduced the frequency of acetic-acid-induced contractions below the rate observed during saline infusion
[1]; urethane-anesthetized female rats, 0.5% acetic acid bladder infusion, intrathecal, two ascending doses (Table 1), HCl
  micturition reflex frequency: suppressed micturition reflex frequency in a dose-dependent fashion; also recorded: appeared to suppress the micturition frequency at both doses

## NCC1(CC(=O)O)CCCCC1 [Gabapentin]
[1]; rat, in vivo
  amplitude of bladder contractions: Neither of these drugs suppressed the amplitude of bladder contractions
  frequency of acetic-acid-induced bladder contractions compared with frequency during saline infusion, higher dose: reduced the frequency of acetic-acid-induced bladder contractions to a level comparable to the normal frequency of contraction seen with saline infusion
  micturition reflex frequency: suppressed micturition reflex frequency in a dose-dependent fashion
  micturition reflex frequency at the higher dose: effective at reducing the reflex frequency
  micturition reflex frequency at the lower dose: not at the lower dose

## O=C(c1ccccc1)c1ccc2n1CCC2C(=O)O (stereo not drawn) [Ketorolac, Ketorolac tris]
[1]; 10 rats, intrathecal, lower dose (100 μg per Table 1)
  rats exhibiting a lower reflex frequency, lower dose: 8 of 10
[1]; [3]
  amplitude of bladder contractions: Neither baclofen nor ketorolac reduced the amplitude of bladder contraction
[1]; female rats, intrathecal
  frequency of acetic-acid-induced contractions compared with rate during saline infusion, both doses: reduced the acetic-acid-induced contraction frequency in a dose-dependent manner without suppressing it below the normal rate of contraction observed with saline infusion
[1]; ten rats tested, intrathecal, high dose (500 μg per Table 1)
  rats in which reflex frequency was reduced, high dose: each of the ten rats tested
[1]; [4]
  micturition reflex frequency: suppressed micturition reflex frequency in a dose-dependent fashion

## pentosan polysulfate
[2]
  patients for whom treatment proved successful: approximately 40%

## NCC(CC(=O)O)c1ccc(Cl)cc1 (stereo not drawn) [Baclofen]
[1]; [3]
  amplitude of bladder contractions: Neither baclofen nor ketorolac reduced the amplitude of bladder contraction
[1]; female rats, intrathecal
  frequency of acetic-acid-induced contractions compared with rate during saline infusion, both doses: reduced the acetic-acid-induced contraction frequency in a dose-dependent manner without suppressing it below the normal rate of contraction observed with saline infusion
[1]; [4]
  micturition reflex frequency: statistically significant only at the higher dose
[1]; urethane-anesthetized female rats, 0.5% acetic acid bladder infusion, intrathecal, two ascending doses (Table 1), listed as baclofen
  micturition reflex frequency: suppressed micturition reflex frequency in a dose-dependent fashion
